# Tested on: R223X stop codon in the mutated luciferase gene, ADXC8 luciferase reporter cell line
# Assay: cells
# Assay type: cell-based
# Conditions: 24 h, ADXC8 cells, 24 hours; for Emax: read-out: Fold Over Control, maximum fold response relative to 200 μM G418; for EC (100% of 200 uM G418 response): read-out: pC100%, negative logarithm of the concentration giving the same response as 200 μM G418
Structure (SMILES),Emax,EC (100% of 200 uM G418 response)
Cc1cc(C)c2c(N)cc(NC3CCN(C)CC3)nc2n1 [Example 291],100 to 3000%,1 to 10 µM
Cc1cc(C)c2c(N)nc(N[C@H]3CCNC3)nc2n1 [Example 292],100 to 3000%,1 to 10 µM
Cc1cc(C)c2c(N)nc(N[C@H]3CNC[C@@H]3O)nc2n1 [Example 293],,0.1 to 1 µM
CNc1nc(N[C@@H]2CCNC2)nc2nc(C)cc(C)c12 [Example 294],,0.1 to 1 µM
Cc1nc2nc(N[C@@H]3CCNC3)nc(N)c2c2c1CCC2 [Example 295],,0.1 to 1 µM
CNc1nc(NCCCN2CCOCC2)nc2nc3c(c(C)c12)CCC3 [Example 296],,0.1 to 1 µM
Cc1cc(C)c2c(N)nc(N[C@@H]3CNC[C@H]3F)nc2n1 [Example 297],100 to 3000%,10 to 100 µM
COc1ccc(CNc2ccnc3nc(NC4CCN(C)CC4)nc(N)c23)cc1 [Example 298],0 to 100%,> 100 µM
CN1CCC(Nc2nc(N)c3ccc(CO)nc3n2)CC1 [Example 299],0 to 100%,> 100 µM
Cc1cc(C)c2c(N)cc(NCCCN3CCOCC3)nc2n1 [Example 300],100 to 3000%,1 to 10 µM
Cc1cc(-c2ccccc2)nc2nc(N[C@@H]3CCNC3)nc(N)c12 [Example 301],,1 to 10 µM
Cc1cc(C)c2c(N)nc(N[C@@H]3CNC[C@H]3O)nc2n1 [Example 302],100 to 3000%,1 to 10 µM
Cc1nc2nc(NC3CCN(Cc4ccccc4)CC3)nc(N)c2c2c1CCC2 [Example 306],100 to 3000%,0.1 to 1 µM
CN1CCC(Nc2nc(N)c3c(N(C)C)ccnc3n2)CC1 [Example 307],0 to 100%,> 100 µM
CC(O)c1ccnc2nc(NC3CCN(C)CC3)nc(N)c12 (stereo not drawn) [Example 308],0 to 100%,> 100 µM
CC(=O)c1ccnc2nc(NC3CCN(C)CC3)nc(N)c12 [Example 309],0 to 100%,> 100 µM
CN1CCC(Nc2nc(N)c3ccc(C4CCCC4)nc3n2)CC1 [Example 310],,1 to 10 µM
Cc1cc(C)c2c(N)nc(N[C@@H]3CCN(CC(F)(F)F)C3)nc2n1 [Example 311],0 to 100%,> 31.6 µM
Cc1cc(C)c2c(N)nc(N[C@H]3CCCCNC3)nc2n1 [Example 312],100 to 3000%,10 to 100 µM
Cc1cc(C)c2c(N)nc(N[C@@H]3CCCCNC3)nc2n1 [Example 313],100 to 3000%,1 to 10 µM
Cc1cc(C)c2c(NCC(N)=O)nc(NC3CCN(C)CC3)nc2n1 [Example 314],0 to 100%,> 31.6 µM
Cc1cc(C)c2c(NCCN)nc(NC3CCN(C)CC3)nc2n1 [Example 315],0 to 100%,> 31.6 µM
Cc1cc(C)c2c(NCCn3ccnc3)nc(NC3CCN(C)CC3)nc2n1 [Example 316],0 to 100%,> 31.6 µM
Cc1cc(C)c2c(NCc3ccccn3)nc(NC3CCN(C)CC3)nc2n1 [Example 317],100 to 3000%,10 to 100 µM

Structure (SMILES),Emax,EC (100% of 200 uM G418 response)
Cc1cc(C)c2c(NCc3cccnc3)nc(NC3CCN(C)CC3)nc2n1 [Example 318],0 to 100%,> 31.6 µM
Cc1cc(C)c2c(NCc3ccncc3)nc(NC3CCN(C)CC3)nc2n1 [Example 319],0 to 100%,> 31.6 µM
Cc1cc(C)c2c(NC3CC3)nc(NC3CCN(C)CC3)nc2n1 [Example 320],100 to 3000%,1 to 10 µM
Cc1cc(C)c2c(NC3CCC3)nc(NC3CCN(C)CC3)nc2n1 [Example 321],0 to 100%,> 31.6 µM
Cc1cc(C)c2c(NC(C)C)nc(N[C@@H]3CCNC3)nc2n1 [Example 323],100 to 3000%,1 to 10 µM
Cc1cc(C)c2c(NC3CCCC3)nc(N[C@@H]3CCNC3)nc2n1 [Example 324],0 to 100%,> 31.6 µM
CNc1nc(N[C@H]2CNC[C@@H]2O)nc2nc(C)cc(C)c12 [Example 325],,1 to 10 µM
CNc1nc(N[C@H]2CNC[C@H]2O)nc2nc(C)cc(C)c12 [Example 326],0 to 100%,> 31.6 µM
CNc1nc(N[C@@H]2CCN(C)C2)nc2nc(C)cc(C)c12 [Example 327],100 to 3000%,1 to 10 µM
[2H]C([2H])([2H])Nc1nc(NC2CCN(C)CC2)nc2nc(C)cc(C)c12 [Example 328],100 to 3000%,1 to 10 µM
Cc1cc(C)c2c(NCCC(N)=O)nc(NC3CCN(C)CC3)nc2n1 [Example 329],0 to 100%,> 31.6 µM
CNCCNc1nc(NC2CCN(C)CC2)nc2nc(C)cc(C)c12 [Example 330],0 to 100%,> 31.6 µM
CNc1nc(N[C@@H]2CCNC2)nc2nc(C)c(Br)c(C)c12 [Example 331],100 to 3000%,0.1 to 1 µM
Cc1cc(C)c2c(NC3CC3)nc(N[C@@H]3CCNC3)nc2n1 [Example 332],100 to 3000%,1 to 10 µM
Cc1cc(C)c2c(NC3CCC3)nc(N[C@@H]3CCNC3)nc2n1 [Example 333],0 to 100%,> 31.6 µM
CNc1nc(N[C@H]2CNC[C@@H]2F)nc2nc(C)cc(C)c12 [Example 334],,1 to 10 µM
CNc1nc(N[C@H]2CNC[C@H]2F)nc2nc(C)cc(C)c12 [Example 335],100 to 3000%,1 to 10 µM
CNc1nc(N[C@@H]2CCN(C)C2)nc2nc3c(c(C)c12)CCC3 [Example 336],100 to 3000%,0.1 to 1 µM
CNc1nc(N[C@@H]2CCN(C)C2)nc2nc(C)c3c(c12)CCC3 [Example 337],,0.1 to 1 µM
CNc1nc(N[C@H]2CN(C)C[C@@H]2F)nc2nc(C)cc(C)c12 [Example 339],100 to 3000%,1 to 10 µM
CNc1nc(N[C@H]2CN(C)C[C@H]2F)nc2nc(C)cc(C)c12 [Example 340],100 to 3000%,1 to 10 µM
CNc1nc(N[C@H]2CNC[C@@H]2O)nc2nc3c(c(C)c12)CCC3 [Example 341],100 to 3000%,0.01 to 0.1 µM
CNc1nc(N[C@H]2CNC[C@@H]2F)nc2nc3c(c(C)c12)CCC3 [Example 342],100 to 3000%,0.1 to 1 µM
CNc1nc(N[C@H]2CNC[C@@H]2O)nc2nc(C)c3c(c12)CCC3 [Example 344],,0.01 to 0.1 µM

Structure (SMILES),Emax,EC (100% of 200 uM G418 response)
CNc1nc(N[C@H]2CNC[C@H]2O)nc2nc(C)c3c(c12)CCC3 [Example 345],100 to 3000%,10 to 100 µM
CNc1nc(N[C@H]2CNC[C@@H]2F)nc2nc(C)c3c(c12)CCC3 [Example 346],100 to 3000%,0.1 to 1 µM
CNc1nc(N[C@H]2CNC[C@H]2F)nc2nc(C)c3c(c12)CCC3 [Example 347],,0.1 to 1 µM
Cc1cc(C)c2c(N)nc(N[C@@H]3CN[C@H](C)C3)nc2n1 [Example 348],100 to 3000%,10 to 100 µM
Cc1cc(C)c2c(N)nc(N[C@@H]3CN[C@@H](C)C3)nc2n1 [Example 349],100 to 3000%,10 to 100 µM
Cc1cc(C)c2c(N)nc(N[C@H]3CN[C@@H](C)C3)nc2n1 [Example 350],100 to 3000%,1 to 10 µM
Cc1cc(C)c2c(N)nc(N[C@H]3CNC[C@H]3C)nc2n1 [Example 351],,1 to 10 µM
Cc1cc(C)c2c(N)nc(N[C@H]3CCCNC3)nc2n1 [Example 352],100 to 3000%,10 to 100 µM
CNC(=O)CCNc1nc(NC2CCN(C)CC2)nc2nc(C)cc(C)c12 [Example 353],0 to 100%,> 31.6 µM
Cc1cc(C)c2c(NCCC(=O)N(C)C)nc(NC3CCN(C)CC3)nc2n1 [Example 354],0 to 100%,> 31.6 µM
CC(=O)NCCNc1nc(NC2CCN(C)CC2)nc2nc(C)cc(C)c12 [Example 355],0 to 100%,> 31.6 µM
Cc1cc(C)c2c(NCCS(C)(=O)=O)nc(NC3CCN(C)CC3)nc2n1 [Example 356],0 to 100%,> 31.6 µM
Cc1cc(C)c2c(NCCN3CCOCC3)nc(NC3CCN(C)CC3)nc2n1 [Example 357],100 to 3000%,1 to 10 µM
CNc1nc(N[C@@H]2CCNC2)nc2nc(C)c(Cl)c(C)c12 [Example 358],100 to 3000%,0.1 to 1 µM
CNc1nc(N[C@H]2CN(C)C[C@H]2O)nc2nc(C)cc(C)c12 [Example 359],100 to 3000%,10 to 100 µM
CNc1nc(N[C@H]2CNC[C@H]2O)nc2nc3c(c(C)c12)CCC3 [Example 360],100 to 3000%,10 to 100 µM
CNc1nc(N[C@H]2CN(C)C[C@H]2O)nc2nc3c(c(C)c12)CCC3 [Example 361],100 to 3000%,1 to 10 µM
CNc1nc(N[C@H]2CN(C)C[C@H]2O)nc2nc(C)c3c(c12)CCC3 [Example 364],100 to 3000%,1 to 10 µM
CNc1nc(N[C@H]2CN(C)C[C@@H]2F)nc2nc(C)c3c(c12)CCC3 [Example 365],100 to 3000%,0.1 to 1 µM
CNc1nc(N[C@H]2CN(C)C[C@H]2F)nc2nc(C)c3c(c12)CCC3 [Example 366],100 to 3000%,0.1 to 1 µM
CNc1nc(N[C@@H]2C[C@H](C)N(C)C2)nc2nc(C)cc(C)c12 [Example 367],,1 to 10 µM
CNc1nc(N[C@@H]2C[C@@H]3CC[C@H]2N3C)nc2nc(C)cc(C)c12 [Example 368],100 to 3000%,1 to 10 µM
CNc1nc(N[C@H]2CN(C)C[C@H]2OC)nc2nc(C)cc(C)c12 [Example 369],100 to 3000%,1 to 10 µM
